This test has as its target T1, human type 1 glycine transporter (GlyT1) (Homo sapiens, UniProt P48067).
T1 construct: T98G cells (glioma cells) expressing human type 1 glycine transporter (GlyT1) were used
T1 sequence (P48067 1-706): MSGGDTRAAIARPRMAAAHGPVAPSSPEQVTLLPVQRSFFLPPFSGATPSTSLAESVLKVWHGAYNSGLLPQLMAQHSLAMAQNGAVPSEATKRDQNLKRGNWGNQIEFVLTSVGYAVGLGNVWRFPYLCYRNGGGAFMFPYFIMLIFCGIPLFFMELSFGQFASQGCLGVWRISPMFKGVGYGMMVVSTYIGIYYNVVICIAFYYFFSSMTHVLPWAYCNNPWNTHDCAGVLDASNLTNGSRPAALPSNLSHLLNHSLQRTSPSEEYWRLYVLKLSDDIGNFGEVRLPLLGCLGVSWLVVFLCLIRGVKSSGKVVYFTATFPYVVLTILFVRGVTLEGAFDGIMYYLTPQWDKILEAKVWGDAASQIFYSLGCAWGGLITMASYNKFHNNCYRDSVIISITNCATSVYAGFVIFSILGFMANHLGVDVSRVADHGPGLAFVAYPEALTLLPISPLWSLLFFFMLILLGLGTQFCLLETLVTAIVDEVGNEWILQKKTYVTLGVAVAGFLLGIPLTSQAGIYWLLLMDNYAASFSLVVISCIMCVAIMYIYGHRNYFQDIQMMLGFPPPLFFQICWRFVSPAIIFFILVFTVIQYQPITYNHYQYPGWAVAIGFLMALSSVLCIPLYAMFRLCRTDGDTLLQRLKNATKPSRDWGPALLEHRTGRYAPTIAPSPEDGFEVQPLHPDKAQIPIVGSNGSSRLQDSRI
Nature of the test: Glycine uptake inhibition experiment ([3H]glycine uptake). Format: cell-based. Put shortly: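 T98G glioma cells expressing human GlyT1 were pretreated 10 min with compound in HEPES buffer pH 7.4 (0.2% BSA), then incubated with compound plus 250 nM final [3H]glycine for 15 min at room temperature. Intracellular radioactivity was counted after NaOH lysis; 10 μM ALX5407 defined non-specific uptake. IC50 came from 10^−9–10^−5 M curves.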

`O=C(NC(c1cccc(F)c1)C1(O)CCC(F)(F)CC1)c1nccc(C(F)(F)F)c1Cl` (stereo not shown) [Compound 75, 3-chloro-N-[(4,4-difluoro-1-hydroxycyclohexyl)(3-fluorophenyl)methyl]-4-(trifluoromethyl)pyridine-2-carboxamide] showed an IC50 (GlyT1) of 240 nM. That is a sub-micromolar value.

Regarding `CCn1cc(-c2cccc(C(NC(=O)c3c(Cl)ccc(Cl)c3OC)C3(O)CCC(F)(F)CC3)c2)cn1` (stereo not shown) [Compound 182, 3,6-dichloro-N-[(4,4-difluoro-1-hydroxycyclohexyl)[3-(1-ethyl-1H-pyrazol-4-yl)phenyl]methyl}-2-methoxybenzamide], the IC50 (GlyT1) worked out at 580 nM.

The compound `O=C(NC(c1cc(F)cc(Cl)c1)[C@]1(O)CC[C@@H](F)CC1)c1nccc(C(F)(F)F)c1Cl` (single isomer, unassigned) [Compound 220, 3-chloro-N-[(3-chloro-5-fluorophenyl)(cis-4-fluoro-1-hydroxycyclohexyl)methyl]-4-(trifluoromethyl)pyridine-2-carboxamide] showed an IC50 (GlyT1) of 1800 nM. Against the preceding compound, the IC50 is about 3.1-fold higher.

The compound `CCn1cc(-c2cccc(C(NC(=O)c3cc(C(F)(F)F)cnc3Cl)C3(O)CCC(F)(F)CC3)c2)cn1` (stereo not shown) [Compound 202, 2-chloro-N-{(4,4-difluoro-1-hydroxycyclohexyl)[3-(1-ethyl-1H-pyrazol-4-yl)phenyl]methyl}-5-(trifluoromethyl)pyridine-3-carboxamide] gave an IC50 (GlyT1) of 900 nM.

`O=C(NC(c1cccc(F)c1F)C1(O)CCC(F)CC1)c1nccc(C(F)(F)F)c1Cl` (single isomer, unassigned) [Compound 204, 3-chloro-N-[(2,3-difluorophenyl)(4-fluoro-1-hydroxycyclohexyl)methyl]-4-(trifluoromethyl)pyridine-2-carboxamide] had an IC50 (GlyT1) of 100 nM.

`O=C(NC(c1cccc(F)c1)C1(O)CCC(F)CC1)c1nccc(C(F)(F)F)c1Cl` (single isomer, unassigned) [Compound 236, 3-chloro-N-[(cis-4-fluoro-1-hydroxycyclohexyl)(3-fluorophenyl)methyl]-4-(trifluoromethyl)pyridine-2-carboxamide] showed an IC50 (GlyT1) of 100 nM.

Compound `O=C(NC(c1cc(Cl)ccn1)[C@]1(O)CC[C@@H](F)CC1)c1cc(C(F)(F)F)ncc1Cl` (single isomer, unassigned) [Compound 333, 5-chloro-N-[(4-chloropyridin-2-yl)(cis-4-fluoro-1-hydroxycyclohexyl)methyl]-2-(trifluoromethyl)pyridine-4-carboxamide] returned an IC50 (GlyT1) of 1700 nM.

In the case of `COc1ccc(Cl)c(C(=O)NC(c2cccc(F)c2Cl)[C@]2(O)CC[C@@H](F)CC2)c1` (single isomer, unassigned) [Compound 293, 2-chloro-N-[(2-chloro-3-fluorophenyl)(cis-4-fluoro-1-hydroxycyclohexyl)methyl]-5-methoxybenzamide], where the note is “GlyT1”, the half-maximal inhibitory concentration (IC50) was 450 nM. This IC50 lies about 3.8-fold lower than the previous one.

For the compound `O=C(NC(c1ccccc1Cl)C1(O)CCC(F)(F)CC1)c1ccc(C(F)(F)F)nc1-n1nccn1` (single isomer, unassigned) [Compound 408, N-[(2-chlorophenyl)(4,4-difluoro-1-hydroxycyclohexyl)methyl]-2-(2H-1,2,3-triazol-2-yl)-6-(trifluoromethyl)pyridine-3-carboxamide], under “human GlyT1”, the IC50 amounted to 2200 nM.

Compound `O=C(NC(c1cccc(Br)c1)C1(O)CC=CCC1)c1nccc(C(F)(F)F)c1Cl` (stereo not shown) [Compound 142, N-[(3-bromophenyl)(1-hydroxycyclohex-3-en-1-yl)methyl]-3-chloro-4-(trifluoromethyl)pyridine-2-carboxamide] came in with an IC50 (GlyT1) of 410 nM.

As for `O=C(NC(c1cccc(F)c1Cl)[C@]1(O)CC[C@@H](F)CC1)c1cc(C(F)(F)F)ncc1Cl` (single isomer, unassigned) [Compound 280, 5-chloro-N-[(2-chloro-3-fluorophenyl)(cis-4-fluoro-1-hydroxycyclohexyl)methyl]-2-(trifluoromethyl)pyridine-4-carboxamide], the IC50 (GlyT1) came to 150 nM.

`O=C(NC(c1cccnc1Cl)[C@]1(O)CC[C@@H](F)CC1)c1ccnc(C(F)(F)F)c1Cl` (single isomer, unassigned) [Compound 321, 3-chloro-N-[(2-chloropyridin-3-yl)(cis-4-fluoro-1-hydroxycyclohexyl)methyl]-2-(trifluoromethyl)pyridine-4-carboxamide] yielded a concentration for half-maximal inhibition (IC50) (GlyT1) of 590 nM.

The compound `O=C(N[C@@H](c1cccc(Br)c1)C1(O)CCCC1)c1nccc(C(F)(F)F)c1-n1ccnn1` [Compound 71, N-[(S)-(3-bromophenyl)(1-hydroxycyclopentyl)methyl]-3-(1H-1,2,3-triazol-1-yl)-4-(trifluoromethyl)pyridine-2-carboxamide] gave an IC50 (GlyT1) of 5700 nM.

Consider `O=C(NC(c1cccc(Cl)c1)C1(O)CCCC1)c1nccc(C(F)(F)F)c1Cl` (single isomer, unassigned) [Compound 55, 3-chloro-N-[(3-chlorophenyl)(1-hydroxycyclopentyl)methyl]-4-(trifluoromethyl)pyridine-2-carboxamide], for which the midpoint of inhibition (GlyT1), the IC50, lay at 8000 nM.

Under “GlyT1”, `O=C(NC(c1cccc(F)c1)C1(O)CCC(F)(F)CC1)c1nccc(C(F)(F)F)c1Cl` (single isomer, unassigned) [Compound 77, 3-chloro-N-[(4,4-difluoro-1-hydroxycyclohexyl)(3-fluorophenyl)methyl]-4-(trifluoromethyl)pyridine-2-carboxamide] displayed an IC50 of 1200 nM. This IC50 lies about 6.7-fold lower than the previous one.

For the setting “GlyT1”, `O=C(NC(c1cc(Cl)ccc1Cl)C1(O)CCC(F)(F)CC1)c1nccc(C(F)(F)F)c1Cl` (single isomer, unassigned) [Compound 234, 3-chloro-N-[(2,5-dichlorophenyl)(4,4-difluoro-1-hydroxycyclohexyl)methyl]-4-(trifluoromethyl)pyridine-2-carboxamide] returned an IC50 of 280 nM.

The compound `O=C(NC(c1cccnc1Cl)[C@]1(O)CC[C@@H](F)CC1)c1nccc(C(F)F)c1Cl` (single isomer, unassigned) [Compound 324, 3-chloro-N-[(2-chloropyridin-3-yl)(cis-4-fluoro-1-hydroxycyclohexyl)methyl]-4-(difluoromethyl)pyridine-2-carboxamide] returned a 50% inhibitory concentration (IC50) (GlyT1) of 1200 nM.

As for `O=C(NC(c1ncccc1Cl)C1(O)CCC(F)(F)CC1)c1nccc(C(F)(F)F)c1Cl` (single isomer, unassigned) [Compound 318, 3-chloro-N-[(3-chloropyridin-2-yl)(4,4-difluoro-1-hydroxycyclohexyl)methyl]-4-(trifluoromethyl)pyridine-2-carboxamide], 240 nM corresponded to half-maximal inhibition (GlyT1) (IC50).

On to `CCn1cc(-c2cccc(C(NC(=O)c3c(Cl)ccc(C(F)(F)F)c3Cl)C3(O)CCC(F)(F)CC3)c2)cn1` (single isomer, unassigned) [Compound 221, 2,6-dichloro-N-{(4,4-difluoro-1-hydroxycyclohexyl)[3-(1-ethyl-1H-pyrazol-4-yl)phenyl]methyl}-3-(trifluoromethyl)benzamide], for which, where the note is “GlyT1”, the IC50 was found to be 5600 nM.

`CCn1cc(-c2cccc(C(NC(=O)c3ccc(F)cc3C(F)(F)F)C3(O)CCC(F)(F)CC3)c2)cn1` (single isomer, unassigned) [Compound 215, N-{(4,4-difluoro-1-hydroxycyclohexyl)[3-(1-ethyl-1H-pyrazol-4-yl)phenyl]methyl}-4-fluoro-2-(trifluoromethyl)benzamide] gave an IC50 (GlyT1) of 210 nM.

Compound `CCn1cc(-c2cccc(C(NC(=O)c3c(Cl)cc(Cl)cc3Cl)C3(O)CCC(F)(F)CC3)c2)cn1` (stereo not shown) [Compound 176, 2,4,6-trichloro-N-{(4,4-difluoro-1-hydroxycyclohexyl)[3-(1-ethyl-1H-pyrazol-4-yl)phenyl]methyl}benzamide] yielded an IC50 (GlyT1) of 1000 nM.

Consider `O=C(NC(c1cccc(F)c1Cl)[C@]1(O)CC[C@@H](F)CC1)c1cnccc1Cl` (single isomer, unassigned) [Compound 250, 4-chloro-N-[(2-chloro-3-fluorophenyl)(cis-4-fluoro-1-hydroxycyclohexyl)methyl]pyridine-3-carboxamide], for which, for the setting “GlyT1”, the IC50 was 1900 nM.

In the case of `O=C(NC(c1cccc(F)c1Cl)[C@]1(O)CC[C@@H](F)CC1)c1ncc(C(F)(F)F)cc1Cl` (single isomer, unassigned) [Compound 320, 3-chloro-N-[(2-chloro-3-fluorophenyl)(cis-4-fluoro-1-hydroxycyclohexyl)methyl]-5-(trifluoromethyl)pyridine-2-carboxamide], the IC50 (GlyT1) was 1000 nM.

For `O=C(NC(c1cccc(F)c1Cl)[C@]1(O)CC[C@@H](F)CC1)c1ccc(Cl)cc1C(F)(F)F` (single isomer, unassigned) [Compound 313, 4-chloro-N-[(2-chloro-3-fluorophenyl)(cis-4-fluoro-1-hydroxycyclohexyl)methyl]-2-(trifluoromethyl)benzamide], under “GlyT1”, the IC50 was found to be 6400 nM.

`O=C(NC(c1ccc(F)cc1)C1(O)CCCC1)c1nccc(C(F)(F)F)c1Cl` (stereo not shown) [Compound 39, 3-chloro-N-[(4-fluorophenyl)(1-hydroxycyclopentyl)methyl]-4-(trifluoromethyl)pyridine-2-carboxamide]: where the note is “GlyT1”, 1000 nM corresponded to half-maximal inhibition (IC50). This IC50 lies about 6.4-fold lower than the previous one.

A word on the IC50: it is the midpoint of a concentration-inhibition curve. Lower therefore signals higher potency.
